≈ marks a conversion by molar mass, not a printed value.
Key:
H influenzae = assay: MIC, CLSI agar dilution method; format: cell-based; conditions: 18 hrs at 37° C.
Description: (§1) The antibacterial activity of compounds of the invention was evaluated by determining the minimal inhibitory concentration (MIC) according to standard CLSI agar dilution method. The media used for preculture and main culture were Tryptic Soya broth (Difco) and Mueller Hinton medium (Difco), respectively. The Mueller Hinton agar was supplemented with 5% sheep blood for streptococci and pneumococci, and with haemoglobin as well as NAD (nicotinamide adenine dinucleotide) for Haemophilus influenzae, respectively. Overnight cultures were diluted with buffered saline (pH 7.2) to the final cell density of 5×10^6-10^7 CFU/ml, and each bacterial suspension was applied with a replicator (Denley's multipoint inoculator, UK) onto a series of Mueller-Hinton agar plates containing antibacterial agents at various concentrations. Final inoculum was approximately 10^4 CFU/spot. The plates were incubated for 18 hrs at 37° C. The MIC was defined as the lowest concentration of an antibacterial agent that inhibits the development of visible microbial growth on agar.

[1] = test system: S pneumoniae 3773, a high level ermb strain; assay: MIC, CLSI agar dilution method; format: cell-based; conditions: S pneumoniae 3773, high level ermb strain, 18 hrs at 37° C.
Description: as §1

[2] = test system: S pneumoniae ermb strains; assay: MIC, CLSI agar dilution method; format: cell-based; conditions: 18 hrs at 37° C.
Description: as §1

S pneumoniae mef strains = assay: MIC, CLSI agar dilution method; format: cell-based; conditions: 18 hrs at 37° C.
Description: as §1

[3] = test system: S pneumoniae sensitive strains; assay: MIC, CLSI agar dilution method; format: cell-based; conditions: 18 hrs at 37° C.
Description: as §1

[4] = test system: S pyogene 3530, a high level ermb strain; assay: MIC, CLSI agar dilution method; format: cell-based; conditions: S pyogene 3530, high level ermb strain, 18 hrs at 37° C.
Description: as §1

S pneumoniae 3773 = assay: In vivo oral efficacy (ED50) in mice intraperitoneally infected with S pneumoniae 3773; conditions: Mus musculus, two doses at 1 hour and 4 hour after intraperitoneal infection with S pneumoniae 3773, survival on day seven, read-out: ED50 (Dose protecting 50% of infected mice)
Description: The in vivo efficacy of compounds of the invention was evaluated by determining ED50 by oral administration of compounds to group of mice (6 mice/dose group) intraperitoneally infected with (5×10^7-1×10^8 CFU/mouse) S pneumoniae 3773. Two doses of compounds of the invention and Telithromycin were administered at 1 hour and 4 hour after infection. On day seven, percentage of animals surviving in various dose groups were employed to determine ED50 (Dose protecting 50% of infected mice)

## CC[C@@H]1OC(=O)[C@@](C)(F)C(=O)[C@H](C)[C@@H](OC2O[C@H](C)C[C@H](N(C)C)[C@H]2O)[C@](C)(OC)C[C@@H](C)C(=O)[C@H](C)[C@H]2[C@H](/C(N)=N/OCc3ncc(-c4ccon4)cn3)C(=O)O[C@@]21C (stereo partly drawn) [Example 3, (11S,21R)-3-decladinosyl-11,12-dideoxy-2-fluoro-6-O-methyl-3-oxo-12,11-{oxycarbonyl-[E-N-[(5-isoxazol-3-yl-pyrimidin-2-yl)-methoxy]-carboxamidino]methylene}-erythromycin A]
other
  melting point: 196 to 197 °C

## CC[C@@H]1OC(=O)[C@@](C)(F)C(=O)[C@H](C)[C@@H](OC2O[C@H](C)C[C@H](N(C)C)[C@H]2O)[C@](C)(OC)C[C@@H](C)C(=O)[C@H](C)[C@H]2[C@H](/C(N)=N/OCc3nnc(-c4ncccn4)s3)C(=O)O[C@@]21C (stereo partly drawn) [Example 7, (11S,21R)-3-decladinosyl-11,12-dideoxy-2-fluoro-6-O-methyl-3-oxo-12,11-{oxycarbonyl-[E-N-[(5-pyrimidin-2-yl-1,3,4-thiadiazol-2-yl)-methoxy]-carboxamidino]methylene}-erythromycin A]
other
  melting point: 192 to 194 °C

## CC[C@@H]1OC(=O)[C@H](C)C(=O)[C@H](C)[C@@H](OC2O[C@H](C)C[C@H](N(C)C)[C@H]2O)[C@](C)(OC)C[C@@H](C)C(=O)[C@H](C)[C@H]2[C@H](/C(N)=N/O[C@@H](C)c3nnc(-c4ccccn4)s3)C(=O)O[C@@]21C (stereo partly drawn) [Example 33, (11S,21R)-3-decladinosyl-11,12-dideoxy-6-O-methyl-3-oxo-12,11-{oxycarbonyl-[E-N-[1-(5-pyridin-2-yl-1,3,4-thiadiazol-2-yl)-(S)-ethoxy]-carboxamidino]methylene}-erythromycin A]
other
  melting point: 135 to 137 °C

## CC[C@H]1OC(=O)[C@H](C)C(=O)[C@H](C)[C@@H](O[C@@H]2O[C@H](C)C[C@H](N(C)C)[C@H]2O)[C@](C)(OC)C[C@@H](C)C(=O)[C@H](C)[C@H]2N(CCCCn3cnc(-c4cccnc4)c3)C(=O)O[C@]12C [Telithromycin]
H influenzae
  MIC: 4 to 8 µg/mL (≈ 4.93 to 9.85 µM)
[1]
  MIC: 4 µg/mL (≈ 4.93 µM)
[2]
  MIC: 0.007 to 0.5 µg/mL (≈ 0.00862 to 0.616 µM)
S pneumoniae mef strains
  MIC: 0.015 to 1 µg/mL (≈ 0.0185 to 1.23 µM)
[3]
  MIC: 0.007 to 0.015 µg/mL (≈ 0.00862 to 0.0185 µM)
[4]
  MIC: 16 µg/mL (≈ 19.7 µM)
S pneumoniae 3773
  ED50: 75 to 100 mg/kg
